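Compound exposure: 48 hours, 5 concentrations, 96-well plates. GI50: concentration for 50% inhibition of growth.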 Activity calls are given as the source filed them. Cut-off read from the data, not from the text of the source: active = GI50 up to about 1.1 µM and inactive = higher.
Key:
Test in all cases: DTP human tumour cell line panel, 48 h
SF-295 = tested on: SF-295
HOP-18 = tested on: HOP-18
RXF 393 = tested on: RXF 393
SNB-19 = tested on: SNB-19
OVCAR-5 = tested on: OVCAR-5
HT-29 = tested on: HT-29
SK-MEL-28 = tested on: SK-MEL-28
UACC-62 = tested on: UACC-62
SW-620 = tested on: SW-620
OVCAR-8 = tested on: OVCAR-8
SR = tested on: SR
HL-60 = tested on: HL-60
UO-31 = tested on: UO-31
SF-268 = tested on: SF-268
DMS-273 = tested on: DMS-273
OVCAR-3 = tested on: OVCAR-3
Malme-3M = tested on: Malme-3M
NCI-H23 = tested on: NCI-H23
SK-MEL-5 = tested on: SK-MEL-5
CCRF-CEM = tested on: CCRF-CEM
IGROV-1 = tested on: IGROV-1
TK-10 = tested on: TK-10
DLD-1 = tested on: DLD-1
DMS-114 = tested on: DMS-114
UACC-257 = tested on: UACC-257
K562 = tested on: K562
XF498 = tested on: XF498
SF-539 = tested on: SF-539
SN12C = tested on: SN12C
MOLT-4 = tested on: MOLT-4
LOX IMVI = tested on: LOX IMVI
HOP-62 = tested on: HOP-62
KM12 = tested on: KM12
CAKI-1 = tested on: CAKI-1
LXFL 529 = tested on: LXFL 529
A549 = tested on: A549
HCC 2998 = tested on: HCC 2998
COLO 205 = tested on: COLO 205
HOP-92 = tested on: HOP-92
786-0 = tested on: 786-0
M14 = tested on: M14
ACHN = tested on: ACHN
U-251 = tested on: U-251
SNB-78 = tested on: SNB-78
NCI-H460 = tested on: NCI-H460
M19-MEL = tested on: M19-MEL
SNB-75 = tested on: SNB-75
HCT-116 = tested on: HCT-116
NCI-H522 = tested on: NCI-H522
OVCAR-4 = tested on: OVCAR-4
RPMI-8226 = tested on: RPMI-8226
A498 = tested on: A498
NCI-H226 = tested on: NCI-H226
SK-OV-3 = tested on: SK-OV-3
HCT-15 = tested on: HCT-15
EKVX = tested on: EKVX
SK-MEL-2 = tested on: SK-MEL-2
KM-20L2 = tested on: KM-20L2

CCOC(=O)c1cc2c(cn1)[nH]c1cccc(N)c12
GI50 (SF-295): > 100 µM (inactive)
GI50 (HOP-18): > 100 µM (inactive)
GI50 (RXF 393): > 100 µM (inactive)
GI50 (SNB-19): > 100 µM (inactive)
GI50 (OVCAR-5): > 100 µM (inactive)
GI50 (HT-29): > 100 µM (inactive)
GI50 (SK-MEL-28): > 100 µM (inactive)
GI50 (UACC-62): > 100 µM (inactive)
GI50 (SW-620): > 100 µM (inactive)
GI50 (OVCAR-8): > 100 µM (inactive)
GI50 (SR): > 100 µM (inactive)
GI50 (HL-60): 14.6 µM (inactive)
GI50 (UO-31): > 100 µM (inactive)
GI50 (SF-268): > 100 µM (inactive)
GI50 (DMS-273): > 100 µM (inactive)
GI50 (OVCAR-3): > 100 µM (inactive)
GI50 (Malme-3M): > 100 µM (inactive)
GI50 (NCI-H23): > 100 µM (inactive)
GI50 (SK-MEL-5): > 100 µM (inactive)
GI50 (CCRF-CEM): > 100 µM (inactive)
GI50 (IGROV-1): > 100 µM (inactive)
GI50 (TK-10): > 100 µM (inactive)
GI50 (DLD-1): > 100 µM (inactive)
GI50 (DMS-114): > 100 µM (inactive)
GI50 (UACC-257): > 100 µM (inactive)
GI50 (K562): > 100 µM (inactive)
GI50 (XF498): > 100 µM (inactive)
GI50 (SF-539): > 100 µM (inactive)
GI50 (SN12C): > 100 µM (inactive)
GI50 (MOLT-4): 61.5 µM (inactive)
GI50 (LOX IMVI): > 100 µM (inactive)
GI50 (HOP-62): > 100 µM (inactive)
GI50 (KM12): > 100 µM (inactive)
GI50 (CAKI-1): > 100 µM (inactive)
GI50 (LXFL 529): > 100 µM (inactive)
GI50 (A549): > 100 µM (inactive)
GI50 (HCC 2998): > 100 µM (inactive)
GI50 (COLO 205): > 100 µM (inactive)
GI50 (HOP-92): > 100 µM (inactive)
GI50 (786-0): > 100 µM (inactive)
GI50 (M14): > 100 µM (inactive)
GI50 (ACHN): > 100 µM (inactive)
GI50 (U-251): > 100 µM (inactive)
GI50 (SNB-78): > 100 µM (inactive)
GI50 (NCI-H460): > 100 µM (inactive)
GI50 (M19-MEL): > 100 µM (inactive)
GI50 (SNB-75): > 100 µM (inactive)
GI50 (HCT-116): > 100 µM (inactive)
GI50 (NCI-H522): > 100 µM (inactive)
GI50 (OVCAR-4): > 100 µM (inactive)

NNC(=O)/C(=C/c1ccc(Cl)cc1Cl)NC(=O)c1ccccc1
GI50 (RPMI-8226): 86.7 µM (inactive)
GI50 (SF-295): > 100 µM (inactive)
GI50 (HOP-18): > 100 µM (inactive)
GI50 (RXF 393): > 100 µM (inactive)
GI50 (SNB-19): > 100 µM (inactive)
GI50 (OVCAR-5): > 100 µM (inactive)
GI50 (HT-29): > 100 µM (inactive)
GI50 (SK-MEL-28): > 100 µM (inactive)
GI50 (UACC-62): 41 µM (inactive)
GI50 (SW-620): > 100 µM (inactive)
GI50 (OVCAR-8): > 100 µM (inactive)
GI50 (SR): > 100 µM (inactive)
GI50 (HL-60): > 100 µM (inactive)
GI50 (UO-31): > 100 µM (inactive)
GI50 (A498): > 100 µM (inactive)
GI50 (NCI-H226): > 100 µM (inactive)
GI50 (SF-268): > 100 µM (inactive)
GI50 (DMS-273): > 100 µM (inactive)
GI50 (OVCAR-3): > 100 µM (inactive)
GI50 (Malme-3M): > 100 µM (inactive)
GI50 (NCI-H23): > 100 µM (inactive)
GI50 (SK-MEL-5): > 100 µM (inactive)
GI50 (CCRF-CEM): 79.8 µM (inactive)
GI50 (IGROV-1): > 100 µM (inactive)
GI50 (TK-10): > 100 µM (inactive)
GI50 (DLD-1): > 100 µM (inactive)
GI50 (SK-OV-3): > 100 µM (inactive)
GI50 (DMS-114): > 100 µM (inactive)
GI50 (HCT-15): > 100 µM
GI50 (UACC-257): > 100 µM (inactive)
GI50 (K562): 71.4 µM (inactive)
GI50 (XF498): > 100 µM (inactive)
GI50 (SF-539): > 100 µM (inactive)
GI50 (SN12C): > 100 µM (inactive)
GI50 (MOLT-4): 60.5 µM (inactive)
GI50 (LOX IMVI): > 100 µM (inactive)
GI50 (HOP-62): > 100 µM (inactive)
GI50 (KM12): > 100 µM (inactive)
GI50 (CAKI-1): > 100 µM (inactive)
GI50 (EKVX): < 0.01 µM (active)
GI50 (LXFL 529): > 100 µM (inactive)
GI50 (A549): > 100 µM (inactive)
GI50 (SK-MEL-2): > 100 µM (inactive)
GI50 (HCC 2998): > 100 µM (inactive)
GI50 (COLO 205): > 100 µM (inactive)
GI50 (HOP-92): > 100 µM (inactive)
GI50 (786-0): > 100 µM (inactive)
GI50 (M14): > 100 µM (inactive)
GI50 (ACHN): > 100 µM (inactive)
GI50 (U-251): > 100 µM (inactive)
GI50 (SNB-78): > 100 µM (inactive)
GI50 (NCI-H460): > 100 µM (inactive)
GI50 (M19-MEL): > 100 µM (inactive)
GI50 (SNB-75): > 100 µM (inactive)
GI50 (HCT-116): > 100 µM (inactive)
GI50 (NCI-H522): > 100 µM (inactive)
GI50 (OVCAR-4): > 100 µM (inactive)

CCn1c(=O)nc2n(-c3ccccc3)c3ccccc3nc-2c1=O
GI50 (RPMI-8226): 21.8 µM (inactive)
GI50 (SF-295): 24.2 µM (inactive)
GI50 (HOP-18): 61.4 µM (inactive)
GI50 (SNB-19): 23 µM (inactive)
GI50 (OVCAR-5): 29.3 µM (inactive)
GI50 (SK-MEL-28): 32.8 µM (inactive)
GI50 (UACC-62): 12.7 µM (inactive)
GI50 (KM-20L2): 10 µM (inactive)
GI50 (SW-620): 14.4 µM (inactive)
GI50 (OVCAR-8): 19.5 µM (inactive)
GI50 (HL-60): 10.7 µM (inactive)
GI50 (UO-31): 35.7 µM (inactive)
GI50 (A498): 47.4 µM (inactive)
GI50 (NCI-H226): 20 µM (inactive)
GI50 (SF-268): 17.3 µM (inactive)
GI50 (DMS-273): 12.7 µM (inactive)
GI50 (OVCAR-3): 3.96 µM (inactive)
GI50 (Malme-3M): 16.3 µM (inactive)
GI50 (NCI-H23): 25.4 µM (inactive)
GI50 (SK-MEL-5): 10.4 µM (inactive)
GI50 (CCRF-CEM): 21.1 µM (inactive)
GI50 (IGROV-1): 22.4 µM (inactive)
GI50 (TK-10): > 100 µM (inactive)
GI50 (DLD-1): 28.3 µM (inactive)
GI50 (SK-OV-3): > 100 µM (inactive)
GI50 (DMS-114): 11.1 µM (inactive)
GI50 (HCT-15): 15.7 µM
GI50 (UACC-257): 16.7 µM (inactive)
GI50 (K562): 17.9 µM (inactive)
GI50 (XF498): 4.83 µM (inactive)
GI50 (SF-539): 14.2 µM (inactive)
GI50 (SN12C): 20.6 µM (inactive)
GI50 (MOLT-4): 17.3 µM (inactive)
GI50 (HOP-62): 31.7 µM (inactive)
GI50 (KM12): 31.3 µM (inactive)
GI50 (CAKI-1): 12.5 µM (inactive)
GI50 (EKVX): 43.7 µM (inactive)
GI50 (LXFL 529): 28.4 µM (inactive)
GI50 (A549): 17.2 µM (inactive)
GI50 (SK-MEL-2): 25 µM (inactive)
GI50 (HCC 2998): 21 µM (inactive)
GI50 (COLO 205): 3.85 µM (inactive)
GI50 (HOP-92): 18.3 µM (inactive)
GI50 (786-0): 27.9 µM (inactive)
GI50 (M14): 13.9 µM (inactive)
GI50 (ACHN): 4.21 µM (inactive)
GI50 (U-251): 17.5 µM (inactive)
GI50 (SNB-78): 49.8 µM (inactive)
GI50 (NCI-H460): 13.3 µM (inactive)
GI50 (M19-MEL): 10.6 µM (inactive)
GI50 (SNB-75): 82.8 µM (inactive)
GI50 (NCI-H522): 26.9 µM (inactive)
GI50 (OVCAR-4): 12.6 µM (inactive)
